# Experimental data: ChEMBL document CHEMBL3813660, “Kinetic and X-ray crystallographic investigations of substituted 2-thio-6-oxo-1,6-dihydropyrimidine-benzenesulfonamides acting as carbonic anhydrase inhibitors” (Bioorg Med Chem, 2016)
# Legend:
# [1] = target: Carbonic anhydrase 1 (Homo sapiens, UniProt P00915); test: Inhibition of human carbonic anhydrase 1 preincubated for 6 hrs at 4 degC measured for 10 to 100 secs by stopped-flow carbon dioxide hydration assay
# [2] = target: Carbonic anhydrase 2 (Homo sapiens, UniProt P00918); test: Inhibition of human carbonic anhydrase 2 preincubated for 6 hrs at 4 degC measured for 10 to 100 secs by stopped-flow carbon dioxide hydration assay
# [3] = target: Carbonic anhydrase 12 (Homo sapiens, UniProt O43570); test: Inhibition of human carbonic anhydrase 12 preincubated for 6 hrs at 4 degC measured for 10 to 100 secs by stopped-flow carbon dioxide hydration assay
# Chain of Carbonic anhydrase 12 (O43570 whole entry, the tested form may be a part): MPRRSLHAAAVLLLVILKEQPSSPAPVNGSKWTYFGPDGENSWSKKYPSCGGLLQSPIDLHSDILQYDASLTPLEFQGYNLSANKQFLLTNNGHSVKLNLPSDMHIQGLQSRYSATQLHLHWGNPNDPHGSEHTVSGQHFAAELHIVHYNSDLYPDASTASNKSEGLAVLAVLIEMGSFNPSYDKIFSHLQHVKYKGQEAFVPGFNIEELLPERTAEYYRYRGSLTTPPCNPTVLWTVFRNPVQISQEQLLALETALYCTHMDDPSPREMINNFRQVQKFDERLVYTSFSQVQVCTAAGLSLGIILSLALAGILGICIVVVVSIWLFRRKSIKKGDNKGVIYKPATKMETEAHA
# [4] = target: Carbonic anhydrase 9 (Homo sapiens, UniProt Q16790); test: Inhibition of human carbonic anhydrase 9 catalytic domain preincubated for 6 hrs at 4 degC measured for 10 to 100 secs by stopped-flow carbon dioxide hydration assay
# Chain of Carbonic anhydrase 1 (P00915 whole entry): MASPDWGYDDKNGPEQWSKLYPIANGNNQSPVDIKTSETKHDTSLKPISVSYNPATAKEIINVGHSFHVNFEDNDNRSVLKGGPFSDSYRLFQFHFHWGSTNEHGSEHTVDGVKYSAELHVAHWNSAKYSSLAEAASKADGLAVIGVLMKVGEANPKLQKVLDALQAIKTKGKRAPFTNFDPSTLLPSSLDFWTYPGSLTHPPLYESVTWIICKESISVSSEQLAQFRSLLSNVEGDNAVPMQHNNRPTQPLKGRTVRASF
Ki [1] [µM],Ki [2] [µM],Ki [3] [µM],Ki [4] [µM],SMILES
0.083,0.005,0.0092,–,CC(Sc1nc(-c2ccc(Cl)cc2)c(C#N)c(=O)[nH]1)C(=O)Nc1ccc(S(N)(=O)=O)cc1 (stereo not given)
0.032,0.0064,0.024,0.024,CCC(Sc1nc(-c2cccc(OC)c2)c(C#N)c(=O)[nH]1)C(=O)Nc1ccc(S(N)(=O)=O)cc1 (stereo not given)
0.034,0.0061,0.0091,0.037,CC(Sc1nc(-c2ccc(Cl)c(F)c2)c(C#N)c(=O)[nH]1)C(=O)Nc1ccc(S(N)(=O)=O)cc1 (stereo not given)

SMILES,Ki [1] [µM],Ki [2] [µM],Ki [3] [µM],Ki [4] [µM]
CC(Sc1nc(-c2ccc(Cl)c(Cl)c2)c(C#N)c(=O)[nH]1)C(=O)Nc1ccc(S(N)(=O)=O)cc1 (stereo not given),0.048,0.0051,0.0078,0.019
